According to patent US20200172483A1, “HETEROCYCLIC SMALL MOLECULE MODULATORS OF HUMAN STING” (Curadev Pharma Limited, priority 2017, published 2020):
pEC50: −log10 of the molar value.

Biological target: T1, WT/R232 STING protein (Homo sapiens, UniProt Q86WV6, H232R)
T1 construct: host or cells: HEK293T
Assay: Luciferase reporter assay in HEK293T-hSTING-Luciferase cells (R232)
Assay type: cell-based
Conditions: 20 hr stimulation, EC50 range
Source text: • a) Stable STING expressing cells—Stable HEK293T STING-expressing cell lines were generated using plasmids purchased from Invivogen, CA, USA, that contain STING cDNA cloned into the pUNO-1 vector under hEF1-HTLV promoter and containing the Blasticidin selection cassette. The plasmids hSTING (R232), hSTING (H232), hSTING (HAQ) were directly procured from Invivogen while hSTING (AQ) and hSTING (Q) were derived from hSTING (HAQ) and hSTING (R232) plasmids respectively by using a PCR based site directed mutagenesis method. These vectors were individually transfected into HEK293T cells using Lipofectamine (Invitrogen) and transfected cells were selected under Blasticidin selection. These transfected cells were further subjected to clonal selection using the limiting dilution method to obtain clonally pure populations of HEK cells transfected with each of the above mentioned human STING variants. Only those clones were selected in which ligand independent activation of STING was minimal. • b) Stable Luciferase reporter gene expressing cells—Stable HEK293T Luciferase reporter gene expressing cell lines were generated using pCDNA4 plasmids under an IRF-inducible promoter. This promoter is comprised of five tandem interferon-stimulated response elements (ISRE) fused to an ISG54 minimal promoter. This vector was transfected into HEK293T cells using Lipofectamine (Invitrogen) and transfected cells were selected under Zeocin selection. These transfected cells were further subjected to clonal selection using the limiting dilution method to obtain clonally pure populations of HEK cells transfected the Luciferase reporter construct. Only those clones were selected in which ligand independent induction of luciferase was minimal.
5×10^5 clonally selected HEK293T-hSTING-Luciferase cells were seeded in 384-well plates in growth medium and stimulated with novel compounds. After 20 hr of stimulation supernatant were removed and secretary reporter gene activity were measured using the Quanti-Luc detection system (Invivogen) on a Spectramax i3X luminometer.
All compounds were first tested in a primary screen using WT/R232 STING protein to obtain a ‘fold-induction’ over baseline levels of protein activity.

T1 sequence (Q86WV6 whole entry H232R): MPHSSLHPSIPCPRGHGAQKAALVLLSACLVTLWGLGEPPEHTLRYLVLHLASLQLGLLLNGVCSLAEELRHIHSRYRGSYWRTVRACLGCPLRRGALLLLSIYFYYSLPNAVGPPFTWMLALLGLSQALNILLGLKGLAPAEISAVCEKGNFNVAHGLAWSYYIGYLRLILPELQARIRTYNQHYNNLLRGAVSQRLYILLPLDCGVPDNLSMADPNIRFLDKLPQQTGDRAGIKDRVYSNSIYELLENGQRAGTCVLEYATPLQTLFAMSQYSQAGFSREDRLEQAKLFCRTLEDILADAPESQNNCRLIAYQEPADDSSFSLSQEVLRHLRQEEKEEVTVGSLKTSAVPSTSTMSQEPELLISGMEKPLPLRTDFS

Compound	pEC50
Cc1ccc(CNC(=O)c2ccc3c(c2)N(CC(=O)c2ccccc2)C(=O)C3(C)C)o1 [Example 62, 3,3-dimethyl-N-((5-methylfuran-2-yl)methyl)-2-oxo-1-(2-oxo-2-phenylethyl)indoline-6-carboxamide]	< 5.00
CC1(C)C(=O)N(Cc2c(F)cccc2Cl)c2cc(C(=O)NCc3ccc4c(c3)CC(=O)N4)ccc21 [Example 95, 1-(2-chloro-6-fluorobenzyl)-3,3-dimethyl-2-oxo-N-((2-oxoindolin-5-yl)methyl)indoline-6-carboxamide]	< 5.00
Cn1nccc1CN1C(=O)C(C)(C)c2ccc(C(=O)NCc3c(F)cc(F)cc3F)cc21 [Example 77, 3,3-dimethyl-1-((1-methyl-1H-pyrazol-5-yl)methyl)-2-oxo-N-(2,4,6-trifluorobenzyl)indoline-6-carboxamide]	5.00 to 6.00
Cc1oc(-c2ccccc2)nc1CN1C(=O)C(C)(C)c2ccc(C(=O)NCc3c(F)cc(F)cc3F)cc21 [Example 91, 3,3-dimethyl-1-((5-methyl-2-phenyloxazol-4-yl)methyl)-2-oxo-N-(2,4,6-trifluorobenzyl)indoline-6-carboxamide]	< 5.00
Cc1cc(CN2C(=O)C(C)(C)c3ccc(C(=O)NCc4c(F)cc(F)cc4F)cc32)cc(C(F)(F)F)c1 [Example 15, 3,3-dimethyl-1-(3-methyl-5-(trifluoromethyl)benzyl)-2-oxo-N-(2,4,6-trifluorobenzyl)indoline-6-carboxamide]	5.00 to 6.00
CC1(C)C(=O)N(Cc2cc(F)cc(F)c2)c2c1ccc(C(=O)NCc1cc3ccccc3o1)c2F [Example 34, N-(benzofuran-2-ylmethyl)-1-(3,5-difluorobenzyl)-7-fluoro-3,3-dimethyl-2-oxoindoline-6-carboxamide]	< 5.00
CC1(C)C(=O)N(Cc2ccc(C(N)=O)cc2)c2cc(C(=O)NCc3c(F)cc(F)cc3F)ccc21 [Example 120, 1-(4-carbamoylbenzyl)-3,3-dimethyl-2-oxo-N-(2,4,6-trifluorobenzyl)indoline-6-carboxamide]	< 5.00

Second part, the molecule after the results:

pEC50	Compound
5.00 to 6.00	Cc1cc(CN2C(=O)C(C)(C)c3ccc(C(=O)NCc4cc5ccccc5o4)nc32)ccn1 [Example 183, N-(benzofuran-2-ylmethyl)-3,3-dimethyl-1-((2-methylpyridin-4-yl)methyl)-2-oxo-2,3-dihydro-1H-pyrrolo[2,3-b]pyridine-6-carboxamide]
5.00 to 6.00	CC1(C)C(=O)N(Cc2ccncc2)c2nc(C(=O)NCc3c(F)cc(F)cc3F)ccc21 [Example 184, 3,3-dimethyl-2-oxo-1-(pyridin-4-ylmethyl)-N-(2,4,6-trifluorobenzyl)-2,3-dihydro-1H-pyrrolo[2,3-b]pyridine-6-carboxamide]
< 5.00	CC1(CCN2CCOCC2)C(=O)N(Cc2cc(F)cc(F)c2)c2cc(C(=O)NCc3c(F)cc(F)cc3F)ccc21 (centres unmarked) [Example 171, 1-(3,5-difluorobenzyl)-3-methyl-3-(2-morpholinoethyl)-2-oxo-N-(2,4,6-trifluorobenzyl)indoline-6-carboxamide]
< 5.00	CC1(CC(=O)O)C(=O)N(Cc2cc(F)cc(F)c2)c2cc(C(=O)NCc3c(F)cc(F)cc3F)ccc21 (centres unmarked) [Example 169, 2-(1-(3,5-difluorobenzyl)-3-methyl-2-oxo-6-((2,4,6-trifluorobenzyl)carbamoyl)indolin-3-yl)acetic acid]
< 5.00	O=C(NCc1c(F)cc(F)cc1F)c1ccc2c(c1)N(Cc1c(F)cccc1Cl)C(=O)C2(Cl)c1ccccc1 (centres unmarked) [Example 156, 3-chloro-1-(2-chloro-6-fluorobenzyl)-2-oxo-3-phenyl-N-(2,4,6-trifluorobenzyl)indoline-6-carboxamide]
< 5.00	O=C(NCc1ccco1)c1ccc2c(c1)N(Cc1ccccc1F)C(=O)C2(F)F [Example 133, 3.3-Difluoro-1-(2-fluorobenzyl)-N-(furan-2-ylmethyl)-2-oxoindoline-6-carboxamide]
5.00 to 6.00	Cc1cnc(CNC(=O)c2ccc3c(c2)N(Cc2c(F)cccc2Cl)C(=O)C3(C)C)o1 [Example 126, 1-(2-chloro-6-fluorobenzyl)-3,3-dimethyl-N-((5-methyloxazol-2-yl)methyl)-2-oxoindoline-6-carboxamide]
